Experimental data from article PMC4807435 (CPT: Pharmacometrics & Systems Pharmacology, 2016).

Columns and labels:
LPV intrinsic clearance [1] = conditions: same interaction function form; ref Wang et al., 32; cited from earlier work
[2] = Population PK model of unbound and total LPV/RTV in HIV-infected pregnant women; format: in vivo, human; conditions: for Total body clearance CL/F, back-calculated, median (range): intrinsic clearance × unbound fraction
LPV intrinsic clearance [3] = assay: LPV-RTV interaction modeling; format: in vivo, human
[4] = 2nd trimester vs. pp; capsules; ref Mirochnick et al., JAIDS, 2008 (9); cited from earlier work
[5] = final model, 500 bootstrap replicates
[6] = final model, 500 bootstrap replicates, weight-scaled model (per 70kg)

| Structure (SMILES) | Apparent intrinsic clearance CLu/F, post hoc estimate, median (range) ([2]; Visit 1 (20–24 weeks)) | Total body clearance CL/F, back-calculated, median (range) ([2]; Visit 1 (20–24 weeks)) | Total body clearance CL/F, back-calculated, median (range) ([2]; Visit 2 (30 weeks)) | Apparent intrinsic clearance CLu/F, post hoc estimate, median (range) ([2]; Visit 3 (32 weeks)) | Total body clearance CL/F, back-calculated, median (range) ([2]; Visit 3 (32 weeks)) | Apparent intrinsic clearance CLu/F, post hoc estimate, median (range) ([2]; Visit 4 (8 weeks postpartum)) | Total body clearance CL/F, back-calculated, median (range) ([2]; Visit 4 (8 weeks postpartum)) | Interindividual variability of CLu/F, bootstrap estimates (95% CI) ([2]; final model) | Interindividual variability of CLu/F, estimate ([2]; final model) | Interindividual variability of fu, bootstrap estimates (95% CI) ([2]; final model) | Interindividual variability of fu, estimate ([2]; final model) | Interoccasion variability of fu, bootstrap estimates (95% CI) ([2]; final model) | Interoccasion variability of fu, estimate ([2]; final model) | Interoccasion variability of ka, estimate ([2]; final model) | Lag time, estimate ([2]; final model) | ka, estimate ([2]; final model) | Lag time, bootstrap estimates (95% CI) [2, 5] | ka, bootstrap estimates (95% CI) [2, 5] | also measured |
| --- | --- | --- | --- | --- | --- | --- | --- | --- | --- | --- | --- | --- | --- | --- | --- | --- | --- | --- | --- |
| CC(C)c1nc(CN(C)C(=O)N[C@H](C(=O)N[C@@H](Cc2ccccc2)C[C@H](O)[C@H](Cc2ccccc2)NC(=O)OCc2cncs2)C(C)C)cs1 [RTV, ritonavir] | 273 (161, 421) L/hr | 38.2 (26.0, 42.1) L/hr | 52.3 (33.6, 74.1) L/hr | 357 (191, 508) L/hr | 58.5 (32.6, 93.6) L/hr | 178 (101, 257) L/hr | 26.9 (16.6, 37.5) L/hr | 10.6 (1.92, 19.0) %CV | 8.5 %CV | 23.3 (12.2, 34.4) %CV | 24.4 %CV | 20.8 (12.6, 28.6) %CV | 23.5 %CV | 141.8 %CV | 1.86 h | 1.01 h⁻¹ | 1.86 (1.67, 1.94) h | 1.01 (0.340, 2.00) h^−1 | Interaction value (LPV-RTV interaction coefficient) (LPV intrinsic clearance [1]): 0.00064; Interoccasion variability of F, bootstrap estimates (95% CI) ([2]; final model): 30.9 (17.1, 46.1) %CV; Interoccasion variability of F, estimate ([2]; final model): 36.2 %CV; Interoccasion variability of ka, bootstrap estimates (95% CI) ([2]; final model): 142 (81.5, 201) %CV; CLu/F, bootstrap estimates (95% CI) [2, 6]: 157 (120, 202) L/h; Vu/F, bootstrap estimates (95% CI) [2, 6]: 1630 (1040, 2100) L; Interaction parameter (coef) (LPV intrinsic clearance [3]; Model 6, CRTV exponential model, unbound RTV concentration): 0.0028; Interaction coefficient in terms of total RTV concentration (LPV intrinsic clearance [3]; exponential interaction function): 0.00041 |
| Cc1cccc(C)c1OCC(=O)N[C@@H](Cc1ccccc1)[C@@H](O)C[C@H](Cc1ccccc1)NC(=O)[C@H](C(C)C)N1CCCNC1=O [LPV, lopinavir] | 232 (226, 237) L/hr | 5.92 (5.22, 7.22) L/hr | 6.69 (5.73, 8.21) L/hr | 269 (263, 276) L/hr | 6.94 (5.90, 8.46) L/hr | 167 (165, 168) L/hr | 4.28 (3.65, 5.25) L/hr | 2.10 (0.32, 11.4) %CV | 2.70 %CV | 3.81 (0.32, 10.3) %CV | 4.60 %CV | 9.98 (4.68, 13.3) %CV | 10.0 %CV | 138 %CV | 1.77 h | 1.07 h⁻¹ | 1.75 (1.25, 1.93) h | 0.906 (0.582, 1.78) h^−1 | Decrease in AUC [4]: 52%; Increase of median post hoc CLu/F compared to 8 weeks postpartum ([2]; 20–24 weeks of gestation (22 weeks elsewhere in the source)): 38%; Increase of median post hoc CLu/F compared to 8 weeks postpartum ([2]; 30 weeks of gestation): 56%; Increase of median post hoc CLu/F compared to 8 weeks postpartum ([2]; 32 weeks of gestation): 61%; CL/F, estimate ([2]; CL/F = fu × CLu/F): 4.31 L/h; V/F, estimate ([2]; V/F = fu × Vu/F): 88.5 L; Apparent intrinsic clearance CLu/F, post hoc estimate, median (range) ([2]; Visit 2 (30 weeks)): 261 (255, 264) L/hr; fraction unbound ([2]; female, human, plasma, oral, fu, estimate, final model, unbound fraction): 0.0258; Interoccasion variability of CLu/F, bootstrap estimates (95% CI) ([2]; final model): 23.4 (16.1, 29.7) %CV; Interoccasion variability of CLu/F, estimate ([2]; final model): 24.7 %CV; Vu/F, estimate ([2]; final model): 3430 L; CLu/F, bootstrap estimates (95% CI) [2, 5]: 167 (136, 202) L/h; Coefficient of gestational week impact on CLu/F, bootstrap estimates (95% CI) [2, 5]: 0.0148 (0.00835, 0.0223); Vu/F, bootstrap estimates (95% CI) [2, 5]: 3325 (2655, 4256) L; CLu/F, estimate ([2]; final model, population value at gestational week zero (postpartum reference)): 167 L/h; Coefficient of gestational week impact on CLu/F, estimate ([2]; individual final model, CLu/F = θ × e^(coef×WEEK)): 0.0148; Unbound fraction, pregnancy vs postpartum ([2]; population PK covariate analysis): not significantly different; Difference among unbound AUC fractions across the four study visits ([2]; post hoc repeated-measures ANOVA, P > 0.05): no significant findings; LPV clearance estimate (CLu/F) (LPV intrinsic clearance [3]; Basic joint model: LPV and RTV individual final models without interactions): 167 L/h |
